Measured values published in PubChem BioAssay (NCI).
Several values for one entry are separate records, joined by “and”; a condition that tells them apart may be missing. Identical values can stand only once.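 Exposure lasted 48 hours, with cells grown in 96-well plates and compounds tested at five concentrations. At the GI50, growth is halved. TGI marks complete inhibition of growth.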

How the values were obtained:
Test in all cases: NCI tumour cell line growth inhibition, 48 h
COLO 205 colon = test system: COLO 205 colon
786-0 renal = test system: 786-0 renal
SR leukemia = test system: SR leukemia
HS 578T breast = test system: HS 578T breast
MDA-N = test system: MDA-N
MDA-MB-231 breast = test system: MDA-MB-231 breast
HOP-92 NSCLC = test system: HOP-92 NSCLC
BT-549 breast = test system: BT-549 breast
DLD-1 colon = test system: DLD-1 colon
SF-539 CNS = test system: SF-539 CNS
XF 498 CNS = test system: XF 498 CNS
P388 leukemia = test system: P388 leukemia

| SMILES | TGI (COLO 205 colon) | TGI (786-0 renal) [µM] | TGI (SR leukemia) [µM] | TGI (HS 578T breast) [µM] | TGI (MDA-N) [µM] | TGI (MDA-MB-231 breast) [µM] | TGI (HOP-92 NSCLC) | TGI (BT-549 breast) [µM] | TGI (DLD-1 colon) | TGI (SF-539 CNS) | TGI (XF 498 CNS) | TGI (P388 leukemia) | GI50 (COLO 205 colon) [µM] | GI50 (SR leukemia) [µM] | GI50 (HS 578T breast) [µM] | GI50 (MDA-MB-231 breast) [µM] | GI50 (HOP-92 NSCLC) [µM] | GI50 (BT-549 breast) [µM] | GI50 (XF 498 CNS) [µM] | GI50 (SF-539 CNS) [µM] |
| --- | --- | --- | --- | --- | --- | --- | --- | --- | --- | --- | --- | --- | --- | --- | --- | --- | --- | --- | --- | --- |
| O=C(O)C(Cc1cccs1)C(=O)O | > 100 µM | > 100 | > 100 | > 100 | > 100 | > 100 | > 100 µM | > 100 | – | – | – | – | – | – | – | – | – | – | – | – |
| CN(C)Cc1cc(C(=O)O)cc(CN(C)C)c1O | > 100 µM | > 100 | > 100 | > 100 | > 100 | > 100 | > 100 µM | > 100 | – | – | – | – | – | – | – | – | – | – | – | – |
| CC(NCCS(=O)(=O)O)C(=O)O (stereo not given) | > 100 µM | – | – | – | – | – | > 100 µM | – | > 100 µM | > 100 µM | > 100 µM | > 100 µM | – | – | – | – | – | – | – | – |
| COc1ccc(-c2cn3ccnc3c(-c3ccc4ncn(C5CCCCC5)c4c3)n2)cc1 | 14.4 µM | – | > 100 | 49.3 | – | > 100 | > 100 µM | 3.91 | – | – | – | – | 2.22 | 0.89 | 1.16 | 2.83 | 1.18 | 0.41 | – | – |
| CCCCCCCCCC[C@@H](O)[C@@H]1CC[C@@H]([C@@H]2CC[C@@H]([C@@H](O)CCCCCCCCCCC(O)CC3=CC(C)OC3=O)O2)O1 (stereo not given in full) | > 10 µM | – | 6.45 | > 10 | – | > 10 | – | – | – | > 10 µM | – | – | – | – | – | – | – | – | – | – |
| Cc1c2cc[n+](C)cc2c(C)c2c1[nH]c1ccccc12 | 4.57 µM and 3.37 µM | – | > 100 | – | 19.6 | – | 11 µM and 10.1 µM | 8.07 | > 100 µM and 76.9 µM | 2.85 µM and 2.93 µM | 5.09 µM and 2.45 µM | 24.5 µM and 22.2 µM | – | – | – | – | – | – | 0.856 | – |
| C=C[C@H]1CN2CC[C@H]1C[C@@H]2[C@@H](O)c1ccnc2ccccc12 | > 100 µM | > 100 | – | 8.28 | > 100 | > 100 | – | > 100 | – | > 100 µM | – | – | – | – | – | – | – | – | – | – |
| NCCCCCCNc1cc(-c2cccc(OC(F)(F)F)c2)nc2ccc(N3CCCC3)cc12 | – | – | 1.73 | – | – | – | – | – | – | 3 µM | – | – | – | 0.349 | – | – | – | – | – | 1.59 |
